PubChem BioAssay AID266 (DTP/NCI, 2004)
Where “and” joins values, the source holds several entries; their conditions need not be identical. Identical values can stand only once. Results filed as inconclusive are left out.

Tested on: Nude mice, LX-1 lung xenograft intrarenal, tumor weight T/C
Assay: NCI In Vivo Anticancer Drug Screen. Data for tumor model Human Lung LX-1 Xenograft (intrarenal inoculation) in NU/NU BALB/C (nude) mice
Conditions: endpoint: mean tumor weight change, higher = larger tumour
Protocol: The antitumor activity of compounds was measured in mice bearing transplantable tumors. Survival or tumor size were measured and the results are expressed as the measurement made in the treated group (T) divided by the measurement made in the vehicle treated control group (C). The tumor model used in this assay is Human Lung LX-1 Xenograft (intrarenal inoculation) in NU/NU BALB/C (nude) mice

[1] = dose: 300.0 mg/kg/injection, schedule: Q04DX003 (sc), vehicle: saline with Tween-80
[2] = dose: 600.0 mg/kg/injection, schedule: Q04DX003 (sc), vehicle: saline with Tween-80
[3] = dose: 1200.0 mg/kg/injection, schedule: Q04DX003 (sc), vehicle: saline with Tween-80
[4] = dose: 2400.0 mg/kg/injection, schedule: Q04DX003 (sc), vehicle: saline with Tween-80

NC(CNC(=O)CBr)C(=O)O (stereo unspecified)
T/C (dose: 75.0 mg/kg/injection, schedule: Q04DX003 (sc), vehicle: water): 105 % of control
T/C (dose: 150.0 mg/kg/injection, schedule: Q04DX003 (sc), vehicle: water): 79 % of control

CN(Cc1cnc2nc(N)nc(N)c2n1)c1ccc(C(=O)N[C@@H](CCC(=O)O)C(=O)O)cc1
T/C (dose: 1.0 mg/kg/injection, schedule: Q01DX010 (sc), vehicle: sodium bicarbonate): 72 % of control and 84 % of control
T/C (dose: 4.0 mg/kg/injection, schedule: Q01DX010 (sc), vehicle: sodium bicarbonate): 47 % of control

Nc1nc(N)c(N=O)c(Nc2ccc(Br)cc2)n1
T/C [1]: 124 % of control
T/C [2]: 95 % of control
T/C [3]: 229 % of control
T/C [4]: 93 % of control

CSc1cc(=O)n2c3ccccc3c3ccnc1c32
T/C (dose: 80.0 mg/kg/injection, schedule: Q04DX003 (sc), vehicle: saline with Tween-80): 56 % of control
T/C (dose: 160.0 mg/kg/injection, schedule: Q04DX003 (sc), vehicle: saline with Tween-80): 64 % of control
T/C (dose: 320.0 mg/kg/injection, schedule: Q04DX003 (sc), vehicle: saline with Tween-80): 107 % of control

Cc1cnc(/C=N\NC(N)=S)c2cccc(N)c12
T/C (dose: 31.75 mg/kg/injection, schedule: Q04DX003 (ip), vehicle: saline with Tween-80): 74 % of control
T/C (dose: 62.5 mg/kg/injection, schedule: Q04DX003 (ip), vehicle: saline with Tween-80): 89 % of control
T/C (dose: 125.0 mg/kg/injection, schedule: Q04DX003 (ip), vehicle: saline with Tween-80): 49 % of control

O=C(CCCN1CCC(C(O)c2ccc(F)cc2)CC1)c1ccc(F)cc1 (stereo unspecified)
T/C (dose: 12.5 mg/kg/injection, schedule: Q04DX003 (ip), vehicle: saline with Tween-80): 64 % of control
T/C (dose: 25.0 mg/kg/injection, schedule: Q04DX003 (ip), vehicle: saline with Tween-80): 68 % of control
T/C (dose: 50.0 mg/kg/injection, schedule: Q04DX003 (ip), vehicle: saline with Tween-80): 69 % of control

CC(=O)OCN(C)C=O
T/C (dose: 300.0 mg/kg/injection, schedule: Q01DX010 (sc), vehicle: water): 65 % of control
T/C (dose: 600.0 mg/kg/injection, schedule: Q01DX010 (sc), vehicle: water): 52 % of control
T/C (dose: 1200.0 mg/kg/injection, schedule: Q01DX010 (sc), vehicle: water): 40 % of control
T/C (dose: 2400.0 mg/kg/injection, schedule: Q01DX010 (sc), vehicle: water): 45 % of control

O=C1NC(=O)NC(C(=O)O)N1
T/C (dose: 100.0 mg/kg/injection, schedule: Q04DX003 (sc), vehicle: Klucel (hydroxypropylcellulose) (HPC)): 87 % of control
T/C (dose: 200.0 mg/kg/injection, schedule: Q04DX003 (sc), vehicle: Klucel (hydroxypropylcellulose) (HPC)): 98 % of control
T/C (dose: 400.0 mg/kg/injection, schedule: Q04DX003 (sc), vehicle: Klucel (hydroxypropylcellulose) (HPC)): 106 % of control

CC(C#N)(C#N)N=Nc1ccc(Cl)cc1Cl
T/C [2]: 124 % of control
T/C [3]: 86 % of control
T/C [4]: 102 % of control

CC(=Nc1ccccc1)C1=C(O)C(Cc2ccccc2)NC1=O (stereo unspecified)
T/C [1]: 52 % of control
T/C [2]: 32 % of control
T/C [3]: 40 % of control
T/C [4]: 30 % of control

c1ccc2c(NCCCCCCCCNc3c4ccccc4nc4ccccc34)c3ccccc3nc2c1
T/C (dose: 5.0 mg/kg/injection, schedule: Q01DX010 (sc), vehicle: Klucel (hydroxypropylcellulose) (HPC)): 60 % of control
T/C (dose: 10.0 mg/kg/injection, schedule: Q01DX010 (sc), vehicle: Klucel (hydroxypropylcellulose) (HPC)): 76 % of control
T/C (dose: 20.0 mg/kg/injection, schedule: Q01DX010 (sc), vehicle: Klucel (hydroxypropylcellulose) (HPC)): 23 % of control
T/C (dose: 40.0 mg/kg/injection, schedule: Q01DX010 (sc), vehicle: Klucel (hydroxypropylcellulose) (HPC)): 36 % of control

COC(=O)c1ccc(N=NN(C)COC(C)=O)cc1
T/C (dose: 155.52 mg/kg/injection, schedule: Q04DX003 (ip), vehicle: Klucel (hydroxypropylcellulose) (HPC)): 78 % of control
T/C (dose: 259.2 mg/kg/injection, schedule: Q04DX003 (ip), vehicle: Klucel (hydroxypropylcellulose) (HPC)): 47 % of control
T/C (dose: 432.0 mg/kg/injection, schedule: Q04DX003 (ip), vehicle: Klucel (hydroxypropylcellulose) (HPC)): 60 % of control
T/C (dose: 720.0 mg/kg/injection, schedule: Q04DX003 (ip), vehicle: Klucel (hydroxypropylcellulose) (HPC)): 64 % of control

NC(=O)NO
T/C (dose: 200.0 mg/kg/injection, schedule: Q01DX010 (sc), vehicle: saline): 60 % of control
T/C (dose: 400.0 mg/kg/injection, schedule: Q01DX010 (sc), vehicle: saline): 105 % of control
